# Reference: patent US20240165123A1, “USE OF A COMPOUND CONTAINING A TRICYCLIC HETEROARYL GROUP” (CSPC Zhongqi Pharmaceutical Technology (Shijiazhuang) Co., …, priority 2021, published 2024)
# Read-outs that look alike come from different tables or passages of the source.
# System: MRL/lpr lupus erythematosus model mice
# Type: in vivo
# Set-up: key to Kidney IHC (IgG) pathological score, bilateral kidneys: product score; 0 negative, 1-3 low, 4-8 medium, 9-12 high
# Conditions: for Area under the urine protein curve: 16 weeks; for Kidney HE pathological score of both kidneys, Activity index / Kidney HE pathological score of both kidneys, Chronicity index / Kidney HE pathological score of both kidneys, Tubulointerstitial lesions / Kidney IHC (IgG) pathological score, bilateral kidneys / Skin HE pathological score / Total kidney weight / Total kidney weight/body weight %: after 17 weeks of treatment; for IL-6 concentration in serum (ELISA) / Spleen weight / Spleen weight/body weight % / TNF-alpha concentration in serum (ELISA) / Total lymph node weight / Total lymph node weight/body weight %: end of the test
# Description: • female MRL/lpr mice aged 4 weeks, number: 50; • female C57BL/6 mice aged 4 weeks, number: 10.
# According to the concentration of the serum anti-ds-DNA antibody, female MRL/lpr mice were randomly divided into five groups: model group: solvent (aqueous solution containing 0.4% Tween 80 and 0.5% methylcellulose) 10 mL/kg BID, positive control group: prednisone 6 mg/kg QD, compound (I) 20, 40 and 60 mg/kg BID groups, the administration volumes respectively: 10 mL/kg. In addition, female C57BL/6 mice served as the normal control group. The animals in the Compound (I) group and the model group were administrated with the medicament or the solvent by gavage twice a day starting from the beginning of five weeks of age with an interval of 8 hours between two administrations; prednisone was administered to the animals by gavage once a day from the beginning of five weeks of age; the administration was totally performed for 17 weeks.
# Two mice in the model group died at 15 and 16 weeks of administration, respectively, and 8 mice remained at the end of the test; one mouse in the compound (I) 20 mg/kg bid group died in the later period of the 16th week of administration, and 9 mice remained at the end of the test; and no death of mice occurred in other groups.
# The skin destructions on the face, ears and back of mice were observed and scored once a week for 17 times totally.
# Scoring system: 1) red swelling and bleeding of the skin; 2) the extent of hair loss and skin dryness; 3) edema; 4) excoriation/corrosion; 5) lichenoid sclerotic plaque and other symptoms. The score of each item was as follows: normal=0 points; slight=1 point; moderate=2 points; severe=3 points. The severity of skin destruction was determined according to the total score of each evaluated symptom. […]
# The lymph nodes of MRL/lpr mice were scored once a week for a total of 17 times during the test.
# According to the lymph node diameter (cm), the score values were 0-6 points: • 0 point: normal; • 1 point: small (the diameter at one location of points on both sides was less than 1 cm); • 2 points: small (the diameters at two location of points on both sides were less than 1 cm); • 3 points: small (the diameters at three location of points on both sides were less than 1 cm); • 4 points: large (the diameter at one location of points on both sides was larger than 1 cm, the diameters at the other two location of points on both sides were less than 1 cm); • 5 points: large (the diameters at two location of points on both sides were larger than 1 cm, and the diameter at the other location of points on both sides was less than 1 cm); • 6 points: large (the diameters at three location of points on both sides were greater than 1 cm). […]
# Kidney HE scoring criteria: […]
# During the test, the concentration of serum anti-ds-DNA antibody of mice were detected every 4 weeks for 16 weeks.
# At the end of the test, the serum cytokine levels of mice were detected by ELISA. […] See Table 25 and FIG. 17 for details.
smiles,measurement,setting,value
"NC(=O)c1cnc(Nc2ccc3c(c2)OC[C@H]2CN(S(=O)(=O)C4CC4)CCN32)nc1NC1CC1 [Compound (I), (R)-4-(cyclopropylamino)-2-((3-(cyclopropylsulfonyl)-1,2,3,4,4a,5-hexahydrobenzo[b]pyrazolo[1,2-d][1,4]oxazin-8-yl)amino)pyrimidine-5-arboxamide]",Area under the urine protein curve,20 mg/kg BID,5646.42 ± 587.29 wk*mg/L
same,"Kidney HE pathological score of both kidneys, Activity index",20 mg/kg BID,5.20 ± 0.73
same,"Kidney HE pathological score of both kidneys, Chronicity index",20 mg/kg BID,7.00 ± 0.54
same,"Kidney HE pathological score of both kidneys, Tubulointerstitial lesions",20 mg/kg BID,13.50 ± 0.52
same,"Kidney IHC (IgG) pathological score, bilateral kidneys",20 mg/kg BID,8.90 ± 0.72
same,Skin HE pathological score,20 mg/kg BID,3.56 ± 0.44
same,Total kidney weight,20 mg/kg BID,0.4146 ± 0.02 g
same,Total kidney weight/body weight %,20 mg/kg BID,1.1855 ± 0.05%
same,IL-6 concentration in serum (ELISA),20 mg/kg BID,52.38 ± 5.29 pg/mL
same,Spleen weight,20 mg/kg BID,0.4658 ± 0.04 g
same,Spleen weight/body weight %,20 mg/kg BID,1.3336 ± 0.11 %
same,TNF-alpha concentration in serum (ELISA),20 mg/kg BID,48.03 ± 4.12 pg/mL
same,Total lymph node weight,20 mg/kg BID,1.6823 ± 0.24 g
same,Total lymph node weight/body weight %,20 mg/kg BID,4.7396 ± 0.60%
same,Lymph node score,"20 mg/kg BID, week 0",0.0 ± 0.00
same,Skin score (skin destruction),"20 mg/kg BID, week 0",0.0 ± 0.00
same,Skin score (skin destruction),"20 mg/kg BID, week 4",0.0 ± 0.00
same,Lymph node score,"20 mg/kg BID, week 6",0.0 ± 0.00
same,Lymph node score,"20 mg/kg BID, week 7",0.6 ± 0.22
same,Skin score (skin destruction),"20 mg/kg BID, week 8",0.0 ± 0.00
same,Lymph node score,"20 mg/kg BID, week 9",2.0 ± 0.26
same,Lymph node score,"20 mg/kg BID, week 11",2.8 ± 0.29
same,Lymph node score,"20 mg/kg BID, week 12",3.0 ± 0.21
same,Skin score (skin destruction),"20 mg/kg BID, week 12",0.0 ± 0.00
same,Skin score (skin destruction),"20 mg/kg BID, week 14",0.2 ± 0.20
same,Skin score (skin destruction),"20 mg/kg BID, week 16",0.2 ± 0.13
same,Lymph node score,"20 mg/kg BID, week 17",3.6 ± 0.24
same,Skin score (skin destruction),"20 mg/kg BID, week 17",0.2 ± 0.15
same,Area under the urine protein curve,40 mg/kg BID,3851.50 ± 340.32 wk*mg/L
same,"Kidney HE pathological score of both kidneys, Activity index",40 mg/kg BID,4.00 ± 0.42
same,"Kidney HE pathological score of both kidneys, Chronicity index",40 mg/kg BID,7.60 ± 0.50
same,"Kidney HE pathological score of both kidneys, Tubulointerstitial lesions",40 mg/kg BID,12.30 ± 1.03
same,"Kidney IHC (IgG) pathological score, bilateral kidneys",40 mg/kg BID,7.40 ± 0.56
same,Skin HE pathological score,40 mg/kg BID,3.60 ± 0.37
same,Total kidney weight,40 mg/kg BID,0.3704 ± 0.01 g
same,Total kidney weight/body weight %,40 mg/kg BID,1.0997 ± 0.05%
same,IL-6 concentration in serum (ELISA),40 mg/kg BID,63.17 ± 12.60 pg/mL
same,Spleen weight,40 mg/kg BID,0.3184 ± 0.03 g
same,Spleen weight/body weight %,40 mg/kg BID,0.9485 ± 0.09 %
same,TNF-alpha concentration in serum (ELISA),40 mg/kg BID,32.29 ± 4.62 pg/mL
same,Total lymph node weight,40 mg/kg BID,0.7319 ± 0.12 g
same,Total lymph node weight/body weight %,40 mg/kg BID,2.1603 ± 0.35 %
same,Concentration of serum anti-ds-DNA antibody,"40 mg/kg BID, week 0",3.32 ± 0.39 µg/mL
same,Lymph node score,"40 mg/kg BID, week 0",0.0 ± 0.00
same,Skin score (skin destruction),"40 mg/kg BID, week 0",0.0 ± 0.00
same,Concentration of serum anti-ds-DNA antibody,"40 mg/kg BID, week 4",346.06 ± 35.04 µg/mL
same,Skin score (skin destruction),"40 mg/kg BID, week 4",0.0 ± 0.00
same,Lymph node score,"40 mg/kg BID, week 6",0.0 ± 0.00
same,Lymph node score,"40 mg/kg BID, week 7",0.3 ± 0.15
same,Concentration of serum anti-ds-DNA antibody,"40 mg/kg BID, week 8",885.04 ± 96.38 µg/mL
same,Skin score (skin destruction),"40 mg/kg BID, week 8",0.0 ± 0.00
same,Lymph node score,"40 mg/kg BID, week 9",0.7 ± 0.26
same,Lymph node score,"40 mg/kg BID, week 11",0.9 ± 0.23
same,Concentration of serum anti-ds-DNA antibody,"40 mg/kg BID, week 12",1390.83 ± 266.11 µg/mL
same,Lymph node score,"40 mg/kg BID, week 12",1.2 ± 0.25
same,Skin score (skin destruction),"40 mg/kg BID, week 12",0.0 ± 0.00
same,Skin score (skin destruction),"40 mg/kg BID, week 14",0.0 ± 0.00
same,Concentration of serum anti-ds-DNA antibody,"40 mg/kg BID, week 16",1198.59 ± 86.64 µg/mL
same,Skin score (skin destruction),"40 mg/kg BID, week 16",0.0 ± 0.00
same,Lymph node score,"40 mg/kg BID, week 17",1.5 ± 0.34
same,Skin score (skin destruction),"40 mg/kg BID, week 17",0.0 ± 0.00
same,Area under the urine protein curve,60 mg/kg BID,4138.70 ± 1048.57 wk*mg/L
same,"Kidney HE pathological score of both kidneys, Activity index",60 mg/kg BID,3.90 ± 0.75
same,"Kidney HE pathological score of both kidneys, Chronicity index",60 mg/kg BID,6.00 ± 0.75
same,"Kidney HE pathological score of both kidneys, Tubulointerstitial lesions",60 mg/kg BID,8.50 ± 0.91
same,"Kidney IHC (IgG) pathological score, bilateral kidneys",60 mg/kg BID,6.90 ± 0.28
same,Skin HE pathological score,60 mg/kg BID,2.60 ± 0.37
same,Total kidney weight,60 mg/kg BID,0.3639 ± 0.02 g
same,Total kidney weight/body weight %,60 mg/kg BID,1.1424 ± 0.07%
same,IL-6 concentration in serum (ELISA),60 mg/kg BID,35.99 ± 7.36 pg/mL
same,Spleen weight,60 mg/kg BID,0.2805 ± 0.03 g
same,Spleen weight/body weight %,60 mg/kg BID,0.8892 ± 0.10 %
same,TNF-alpha concentration in serum (ELISA),60 mg/kg BID,30.61 ± 4.72 pg/mL
same,Total lymph node weight,60 mg/kg BID,0.5680 ± 0.08 g
same,Total lymph node weight/body weight %,60 mg/kg BID,1.7879 ± 0.26 %
same,Concentration of serum anti-ds-DNA antibody,"60 mg/kg BID, week 0",3.33 ± 0.42 µg/mL
same,Lymph node score,"60 mg/kg BID, week 0",0.0 ± 0.00
same,Skin score (skin destruction),"60 mg/kg BID, week 0",0.0 ± 0.00
same,Concentration of serum anti-ds-DNA antibody,"60 mg/kg BID, week 4",249.26 ± 24.12 µg/mL
same,Skin score (skin destruction),"60 mg/kg BID, week 4",0.0 ± 0.00
same,Lymph node score,"60 mg/kg BID, week 6",0.0 ± 0.00
same,Lymph node score,"60 mg/kg BID, week 7",0.1 ± 0.10
same,Concentration of serum anti-ds-DNA antibody,"60 mg/kg BID, week 8",806.75 ± 110.22 µg/mL
same,Skin score (skin destruction),"60 mg/kg BID, week 8",0.0 ± 0.00
same,Lymph node score,"60 mg/kg BID, week 9",0.3 ± 0.15
same,Lymph node score,"60 mg/kg BID, week 11",0.4 ± 0.16
same,Concentration of serum anti-ds-DNA antibody,"60 mg/kg BID, week 12",1168.19 ± 113.75 µg/mL
same,Lymph node score,"60 mg/kg BID, week 12",0.5 ± 0.22
same,Skin score (skin destruction),"60 mg/kg BID, week 12",0.0 ± 0.00
same,Skin score (skin destruction),"60 mg/kg BID, week 14",0.0 ± 0.00
same,Concentration of serum anti-ds-DNA antibody,"60 mg/kg BID, week 16",1272.27 ± 50.19 µg/mL
same,Skin score (skin destruction),"60 mg/kg BID, week 16",0.0 ± 0.00
same,Lymph node score,"60 mg/kg BID, week 17",1.0 ± 0.26
same,Skin score (skin destruction),"60 mg/kg BID, week 17",0.0 ± 0.00
same,Mice died during the test,"mouse, in vivo",one
